Data: PubChem BioAssay (NCI)
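In this assay, cells in 96-well plates receive the compound at five concentrations for 48 hours. Endpoints are linearly interpolated between the surrounding concentrations. The concentration for full growth arrest is given as TGI.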

Columns and labels:
Assay in all cases: NCI tumour cell line growth inhibition, 48 h
SF-268 CNS = tested on: SF-268 CNS
HCT-15 colon = tested on: HCT-15 colon
TK-10 renal = tested on: TK-10 renal
NCI-H226 lung = tested on: NCI-H226 lung
NCI-H460 lung = tested on: NCI-H460 lung
K-562 leukemia = tested on: K-562 leukemia
MDA-MB-231 breast = tested on: MDA-MB-231 breast
SK-OV-3 ovarian = tested on: SK-OV-3 ovarian
MDA-N = tested on: MDA-N
T-47D breast = tested on: T-47D breast
IGROV1 ovarian = tested on: IGROV1 ovarian
HCT-116 colon = tested on: HCT-116 colon
NCI-H23 lung = tested on: NCI-H23 lung
LOX IMVI melanoma = tested on: LOX IMVI melanoma
SNB-19 CNS = tested on: SNB-19 CNS
PC-3 prostate = tested on: PC-3 prostate
A498 renal = tested on: A498 renal
SN12C renal = tested on: SN12C renal
UACC-62 melanoma = tested on: UACC-62 melanoma
BT-549 breast = tested on: BT-549 breast
HS 578T breast = tested on: HS 578T breast
DU-145 prostate = tested on: DU-145 prostate
HOP-92 NSCLC = tested on: HOP-92 NSCLC
MCF7 breast = tested on: MCF7 breast
SK-MEL-5 melanoma = tested on: SK-MEL-5 melanoma
MOLT-4 leukemia = tested on: MOLT-4 leukemia
KM12 colon = tested on: KM12 colon
786-0 renal = tested on: 786-0 renal
HOP-62 NSCLC = tested on: HOP-62 NSCLC
COLO 205 colon = tested on: COLO 205 colon
UACC-257 melanoma = tested on: UACC-257 melanoma
U251 CNS = tested on: U251 CNS
HT29 colon = tested on: HT29 colon
OVCAR-5 ovarian = tested on: OVCAR-5 ovarian
CCRF-CEM leukemia = tested on: CCRF-CEM leukemia
HL-60(TB) leukemia = tested on: HL-60(TB) leukemia
OVCAR-8 ovarian = tested on: OVCAR-8 ovarian
SK-MEL-28 melanoma = tested on: SK-MEL-28 melanoma
SW-620 colon = tested on: SW-620 colon
ACHN renal = tested on: ACHN renal
CAKI-1 renal = tested on: CAKI-1 renal
A549 NSCLC = tested on: A549 NSCLC
RXF 393 renal = tested on: RXF 393 renal
EKVX NSCLC = tested on: EKVX NSCLC
SK-MEL-2 melanoma = tested on: SK-MEL-2 melanoma
MALME-3M melanoma = tested on: MALME-3M melanoma
NCI-H522 lung = tested on: NCI-H522 lung
OVCAR-4 ovarian = tested on: OVCAR-4 ovarian
UO-31 renal = tested on: UO-31 renal
SF-295 CNS = tested on: SF-295 CNS
MDA-MB-435 = tested on: MDA-MB-435
M14 melanoma = tested on: M14 melanoma
OVCAR-3 ovarian = tested on: OVCAR-3 ovarian
NCI/ADR-RES ovarian = tested on: NCI/ADR-RES ovarian

C#C[C@]1(O)CC[C@H]2[C@@H]3CCC4=CC(=NCCOC(=O)c5cccc6c(=O)c7ccccc7[nH]c56)CC[C@@H]4[C@H]3CC[C@@]21C
TGI (SF-268 CNS): > 100 µM | TGI (HCT-15 colon): > 100 µM | TGI (TK-10 renal): > 100 µM | TGI (NCI-H226 lung): > 100 µM | TGI (NCI-H460 lung): > 100 µM | TGI (K-562 leukemia): > 100 µM | TGI (MDA-MB-231 breast): 72.6 µM | TGI (SK-OV-3 ovarian): > 100 µM | TGI (MDA-N): > 100 µM | TGI (T-47D breast): 78.1 µM | TGI (IGROV1 ovarian): > 100 µM | TGI (HCT-116 colon): > 100 µM | TGI (NCI-H23 lung): > 100 µM | TGI (LOX IMVI melanoma): 84 µM | TGI (SNB-19 CNS): > 100 µM | TGI (PC-3 prostate): 55 µM | TGI (A498 renal): > 100 µM | TGI (SN12C renal): > 100 µM | TGI (UACC-62 melanoma): > 100 µM | TGI (BT-549 breast): > 100 µM | TGI (HS 578T breast): > 100 µM | TGI (DU-145 prostate): > 100 µM | TGI (HOP-92 NSCLC): 89.6 µM | TGI (MCF7 breast): > 100 µM | TGI (SK-MEL-5 melanoma): > 100 µM | TGI (MOLT-4 leukemia): > 100 µM | TGI (KM12 colon): > 100 µM | TGI (786-0 renal): > 100 µM | TGI (HOP-62 NSCLC): > 100 µM | TGI (COLO 205 colon): > 100 µM | TGI (UACC-257 melanoma): > 100 µM | TGI (U251 CNS): 51.4 µM | TGI (HT29 colon): > 100 µM | TGI (OVCAR-5 ovarian): > 100 µM | TGI (CCRF-CEM leukemia): > 100 µM | TGI (HL-60(TB) leukemia): > 100 µM | TGI (OVCAR-8 ovarian): 48.9 µM | TGI (SK-MEL-28 melanoma): > 100 µM | TGI (SW-620 colon): > 100 µM | TGI (ACHN renal): > 100 µM | TGI (CAKI-1 renal): > 100 µM | TGI (A549 NSCLC): > 100 µM | TGI (RXF 393 renal): 43.2 µM | TGI (EKVX NSCLC): > 100 µM | TGI (SK-MEL-2 melanoma): 95.6 µM | TGI (MALME-3M melanoma): 91.1 µM | TGI (NCI-H522 lung): > 100 µM | TGI (OVCAR-4 ovarian): > 100 µM | TGI (UO-31 renal): > 100 µM | TGI (SF-295 CNS): > 100 µM | TGI (MDA-MB-435): > 100 µM | TGI (M14 melanoma): > 100 µM | TGI (OVCAR-3 ovarian): > 100 µM | TGI (NCI/ADR-RES ovarian): > 100 µM
